Values of other authors, collected in article PMC7114426 (Virus Research, 2012).

tested on: nsp16

Compound | inhibition of the MTase activity of nsp16
O=C(O)C1=CC(=C(c2ccc(O)c(C(=O)O)c2)c2ccc(O)c(C(=O)O)c2)C=CC1=O [ATA, aurintricarboxylic acid] | inhibit the MTase activity of nsp16
Nc1ncnc2c1ncn2[C@@H]1O[C@H](CSCC[C@H](N)C(=O)O)[C@@H](O)[C@H]1O [SAH, S-adenosyl-l-homocysteine] | inhibit the MTase activity of nsp16
Nc1ncnc2c1ncn2[C@@H]1O[C@H](C[C@@H](N)CC[C@H](N)C(=O)O)[C@@H](O)[C@H]1O [sinefungin] | inhibit the MTase activity of nsp16
